Data reported in patent publication US20250296971A1, “GASTRIC INHIBITORY PEPTIDE RECEPTOR LIGANDS” (priority 2021, published 2025).
*1 amine or outer side, *2 acyl side, *3 side chain or, on linkers, in order; H or OH if unused. Where a SMILES comes first, the peptide text is derived from it. Bridges are numbered along the chain shown (N, C = ends). [ ]: non-standard residue; d: D form. The star is where a group is joined. X5 = NC(=O)[C@H](CCCCNC(=O)CN1CCN(CC(=O)O)CCN(CC(=O)O)CCN(CC(=O)O)CC1)NC(=O)CCC(=O)NCCCOCCOCCOCCCN*; Trp(5-Br) = N[C@@H](Cc1c[nH]c2ccc(Br)cc12)C(=O)O; Trp(5-Cl) = N[C@@H](Cc1c[nH]c2ccc(Cl)cc12)C(=O)O; Trp(5-F) = N[C@@H](Cc1c[nH]c2ccc(F)cc12)C(=O)O; 1Nal = N[C@@H](Cc1cccc2ccccc12)C(=O)O; mXylylene = c1cc(C[*:1])cc(C[*:2])c1; Ac6c = NC1(C(=O)O)CCCCC1; Aib = CC(C)(N)C(=O)O

Target: T1, GIPR (CHO-K1-hGIPR cells) (Homo sapiens, UniProt P48546)
T1 construct: host or cells: CHO-K1
T1 sequence (P48546 22-466): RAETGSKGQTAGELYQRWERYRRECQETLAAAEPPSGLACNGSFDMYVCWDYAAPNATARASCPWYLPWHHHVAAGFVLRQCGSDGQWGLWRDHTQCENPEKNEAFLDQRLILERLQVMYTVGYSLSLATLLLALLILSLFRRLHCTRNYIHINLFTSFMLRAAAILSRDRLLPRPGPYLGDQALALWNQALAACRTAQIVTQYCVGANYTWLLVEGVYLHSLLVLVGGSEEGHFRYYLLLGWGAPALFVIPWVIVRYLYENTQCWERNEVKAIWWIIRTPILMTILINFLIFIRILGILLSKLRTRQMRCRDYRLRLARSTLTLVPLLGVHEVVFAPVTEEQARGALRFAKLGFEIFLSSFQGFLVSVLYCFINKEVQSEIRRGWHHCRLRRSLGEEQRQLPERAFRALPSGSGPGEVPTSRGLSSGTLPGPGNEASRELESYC
Test: FACS binding assay
Conditions: competition with 20 nM GIP-057, 4° C., 1 hour, read-out: pIC50 Category (converted)
Procedure, shortened: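 Read-out: flow cytometric median fluorescence intensity, APC/Cy5 channel, plotted vs peptide conc.; 4PL fit → EC50/pEC50 or IC50/pIC50. Cells: CHO-K1-hGIPR, Accutase-detached, 500.000/mL in PBS + 1% FCS. Detection: APC-streptavidin 1 μg/mL, 30 min, on ice.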

With `CC[C@H](C)[C@@H]1NC(=O)[C@H](CC(C)C)NC(=O)C(C)(C)NC(=O)[C@@H](NC(=O)[C@H](CC(C)C)NC(=O)[C@H](CCC(=O)O)NC(=O)[C@@H]2CCCN2C(=O)[C@H](Cc2c[nH]c3ccc(Cl)cc23)NC(=O)[C@H](Cc2c[nH]c3ccccc23)NC(=O)[C@H](CC(=O)O)NC(C)=O)CSCc2cccc(c2)CSC[C@@H](C(=O)NCCCOCCOCCOCCCNC(=O)CCC(=O)N[C@@H](CCCCNC(=O)CN2CCN(CC(=O)O)CCN(CC(=O)O)CCN(CC(=O)O)CC2)C(N)=O)NC1=O` [GIP-076, Ac-Asp-Trp-5Clw-Pro-Glu-Leu-[Cys(3MeBn)-Aib-Leu-Ile-Cys]-Ttds-Lys(DOTA)-NH2] (Ac-DW[Trp(5-Cl)]PELC[Aib]LIC-X5; linker 7-11 via mXylylene) the IC50 was less than 10 nM.

Molecule `CC[C@H](C)[C@@H]1NC(=O)[C@H](CC(C)C)NC(=O)C(C)(C)NC(=O)[C@@H](NC(=O)[C@@H](CC(C)C)NC(=O)[C@H](CCC(=O)O)NC(=O)[C@@H]2CCCN2C(=O)[C@H](Cc2cccc3ccccc23)NC(=O)[C@H](Cc2c[nH]c3ccccc23)NC(=O)[C@H](CC(=O)O)NC(C)=O)CSCc2cccc(c2)CSC[C@@H](C(=O)NCCCOCCOCCOCCCNC(=O)CCC(=O)N[C@@H](CCCCNC(=O)CN2CCN(CC(=O)O)CCN(CC(=O)O)CCN(CC(=O)O)CC2)C(N)=O)NC1=O` [GIP-078, Ac-Asp-Trp-1Ni-Pro-Glu-leu-[Cys(3MeBn)-Aib-Leu-Ile-Cys]-Ttds-Lys(DOTA)-NH2] (Ac-DW[1Nal]PE[dL]C[Aib]LIC-X5; linker 7-11 via mXylylene) has an IC50 of less than 10 nM.

Work on `CC[C@H](C)[C@@H]1NC(=O)[C@H](CC(C)C)NC(=O)C2(CCCCC2)NC(=O)[C@@H](NC(=O)[C@@H](CC(C)C)NC(=O)[C@H](CCC(=O)O)NC(=O)[C@@H]2CCCN2C(=O)[C@H](Cc2cccc3ccccc23)NC(=O)[C@H](Cc2c[nH]c3ccccc23)NC(=O)[C@H](CC(=O)O)NC(C)=O)CSCc2cccc(c2)CSC[C@@H](C(=O)NCCCOCCOCCOCCCNC(=O)CCC(=O)N[C@@H](CCCCNC(=O)CN2CCN(CC(=O)O)CCN(CC(=O)O)CCN(CC(=O)O)CC2)C(N)=O)NC1=O` [GIP-080, Ac-Asp-Trp-1Ni-Pro-Glu-leu-[Cys(3MeBn)-Egz-Leu-Ile-Cys]-Ttds-Lys(DOTA)-NH2] (Ac-DW[1Nal]PE[dL]C[Ac6c]LIC-X5; linker 7-11 via mXylylene) yielded an IC50 of less than 10 nM.

For `CC[C@H](C)[C@@H]1NC(=O)[C@H](CC(C)C)NC(=O)C(C)(C)NC(=O)[C@@H](NC(=O)[C@@H](CC(C)C)NC(=O)[C@H](CCC(=O)O)NC(=O)[C@@H]2CCCN2C(=O)[C@H](Cc2c[nH]c3ccc(F)cc23)NC(=O)[C@H](Cc2c[nH]c3ccccc23)NC(=O)[C@H](CC(=O)O)NC(C)=O)CSCc2cccc(c2)CSC[C@@H](C(=O)NCCCOCCOCCOCCCNC(=O)CCC(=O)N[C@@H](CCCCNC(=O)CN2CCN(CC(=O)O)CCN(CC(=O)O)CCN(CC(=O)O)CC2)C(N)=O)NC1=O` [GIP-081, Ac-Asp-Trp-5Fw-Pro-Glu-leu-[Cys(3MeBn)-Aib-Leu-Ile-Cys]-Ttds-Lys(DOTA)-NH2] (Ac-DW[Trp(5-F)]PE[dL]C[Aib]LIC-X5; linker 7-11 via mXylylene), the IC50 was less than 10 nM.

`CC[C@H](C)[C@@H]1NC(=O)[C@H](CC(C)C)NC(=O)C(C)(C)NC(=O)[C@@H](NC(=O)[C@@H](CC(C)C)NC(=O)[C@H](CCC(=O)O)NC(=O)[C@@H]2CCCN2C(=O)[C@H](Cc2c[nH]c3ccc(Br)cc23)NC(=O)[C@H](Cc2c[nH]c3ccccc23)NC(=O)[C@H](CC(=O)O)NC(C)=O)CSCc2cccc(c2)CSC[C@@H](C(=O)NCCCOCCOCCOCCCNC(=O)CCC(=O)N[C@@H](CCCCNC(=O)CN2CCN(CC(=O)O)CCN(CC(=O)O)CCN(CC(=O)O)CC2)C(N)=O)NC1=O` [GIP-082, Ac-Asp-Trp-5Brw-Pro-Glu-leu-[Cys(3MeBn)-Aib-Leu-Ile-Cys]-Ttds-Lys(DOTA)-NH2] (Ac-DW[Trp(5-Br)]PE[dL]C[Aib]LIC-X5; linker 7-11 via mXylylene) gave an IC50 of less than 10 nM.
